Experiment [1] deals with genotype 1b (Con-1) HCV replicon in Huh-7 cells. The experiment is described as follows: HCV replicon luciferase assay. It is filed as cell-based. The settings on record: 1b replicon, Huh-7, Renilla luciferase, 3 days incubation. As for the experimental part:
The cell lines used to evaluate compounds consist of a human hepatocyte derived cell line (Huh-7) that constitutively expresses a genotype 1b (Con-1) HCV replicon or a genotype 1b (Con-1) HCV replicon with an asparagine replacing the cysteine at amino acid 316, or a genotype 2a (JFH-1) replicon, containing a Renilla luciferase reporter gene. These cells were maintained in Dulbecco's modified Eagle medium (DMEM) containing 10% FBS, 100 U/mL penicillin/streptomycin and 1.0 mg/mL G418.
HCV Replicon Luciferase Assay.
To evaluate compound efficacy, titrated compounds were transferred to sterile 384-well tissue culture treated plates, and the plates were seeded with HCV replicon cells (50 μL at a density of 2.4×10^3 cells/well) in DMEM containing 4% FBS (final DMSO concentration at 0.5%). After 3 days incubation at 37° C., cells were analyzed for Renilla Luciferase activity using the EnduRen substrate (Promega cat # E6485) according to the manufacturer's directions. Briefly, the EnduRen substrate was diluted in DMEM and then added to the plates to a final concentration of 7.5 μM. The plates were incubated for at least 1 h at 37° C. then read on a Viewlux Imager (PerkinElmer) using a luminescence program. The 50% effective concentration (EC50) was calculated using the four-parameter logistic formula noted above.
A general note: Replicon systems follow genome replication, usually without infectious particles.

For experiment [2], the target named is T1, NS5B proteins of HCV genotype 1b (Con1) (Hepatitis C virus genotype 1b, UniProt Q9WMX2).
T1 construct: Each untagged protein was expressed with an 18 amino acid C-terminal truncation to enhance the solubility; made in house; host or cells: E. coli BL21(DE3), pET21a
The experiment is described as follows: HCV NS5B RdRp enzyme assay. The settings on record: 1b enzyme. It is filed as biochemical. As for the experimental part:
HCVNS5B RdRp Cloning, Expression, and Purification.
The cDNA encoding NS5B proteins of HCV genotype 1b (Con1), a genotype 1b variant with amino acid 316 mutated from cysteine to asparagine, and genotype 2a (JFH-1), were cloned into the pET21a expression vector. Each untagged protein was expressed with an 18 amino acid C-terminal truncation to enhance the solubility. The E. coli competent cell line BL21(DE3) was used for expression of the protein. Cultures were grown at 37° C. for ˜4 hours until the cultures reached an optical density of 2.0 at 600 nm. The cultures were cooled to 20° C. and induced with 1 mM IPTG. Fresh ampicillin was added to a final concentration of 50 μg/mL and the cells were grown overnight at 20° C.
Cell pellets (3 L) were lysed for purification to yield 15-24 mgs of purified NS5B. The lysis buffer consisted of 20 mM Tris-HCl, pH 7.4, 500 mM NaCl, 0.5% triton X-100, 1 mM DTT, 1 mM EDTA, 20% glycerol, 0.5 mg/mL lysozyme, 10 mM MgCl2, 15 ug/mL deoxyribonuclease I, and Complete TM protease inhibitor tablets (Roche). After addition of the lysis buffer, frozen cell pellets were resuspended using a tissue homogenizer. To reduce the viscosity of the sample, aliquots of the lysate were sonicated on ice using a microtip attached to a Branson sonicator. The sonicated lysate was centrifuged at 100,000×g for 30 minutes at 4° C. and filtered through a 0.2 μm filter unit (Corning).
The protein was purified using two sequential chromatography steps: Heparin sepharose CL-6B and polyU sepharose 4B. The chromatography buffers were identical to the lysis buffer but contained no lysozyme, deoxyribonuclease I, MgCl2 or protease inhibitor and the NaCl concentration of the buffer was adjusted according to the requirements for charging the protein onto the column. Each column was eluted with a NaCl gradient which varied in length from 5-50 column volumes depending on the column type. After the final chromatography step, the resulting purity of the enzyme is >90% based on SDS-PAGE analysis. The enzyme was aliquoted and stored at −80° C.
HCVNS5B RdRp Enzyme Assay.
An on-bead solid phase homogeneous assay was used in a 384-well format to assess NS5B inhibitors (WangY-K, Rigat K, Roberts S, and Gao M (2006) Anal Biochem, 359: 106-111). The biotinylated oligo dT12 primer was captured on streptavidin-coupled imaging beads (GE, RPNQ0261) by mixing primer and beads in 1× buffer and incubating at room temperature for three hours. Unbound primer was removed after centrifugation. The primer-bound beads were resuspended in 3× reaction mix (20 mM Hepes buffer, pH 7.5, dT primer coupled beads, poly A template, ^3H-UTP, and RNAse inhibitor (Promega N2515)). Compounds were serially diluted 1:3 in DMSO and aliquoted into assay plates. Equal volumes (10 μL) of water, 3× reaction mix, and enzyme in 3× assay buffer (60 mM Hepes buffer, pH 7.5, 7.5 mM MgCl2, 7.5 mM KCl, 3 mM DTT, 0.03 mg/mL BSA, 6% glycerol) were added to the diluted compound on the assay plate. Final concentration of components in 384-well assay: 0.36 nM template, 15 nM primer, 0.29 μM ^3H-UTP (0.3 μCi), 1.6 U/μL RNAse inhibitor, 7 nM NS5B enzyme, 0.01 mg/mL BSA, 1 mM DTT, and 0.33 μg/μL beads, 20 mM Hepes buffer, pH 7.5, 2.5 mM MgCl2, 2.5 mM KCl, and 0.1% DMSO.
Reactions were allowed to proceed from 4 to 24 hours at 30° C. For 24 hour reactions, enzyme and inhibitors were pre-incubated for 24 hours before adding template and primer. Reactions were terminated by the addition of 50 mM EDTA (10 μL). After incubating for at least 15 minutes, plates were read on an Amersham LEADseeker multimodality imaging system.
IC50 values for compounds were determined using ten different [I]. IC50 values were calculated from the inhibition using the four-parameter logistic formula y=A+((B−A)/(1+((C/x)^D))), where A and B denote minimal and maximal % inhibition, respectively, C is the IC50, D is hill slope and x represents compound concentration.

T1 sequence (Q9WMX2 2420-2992): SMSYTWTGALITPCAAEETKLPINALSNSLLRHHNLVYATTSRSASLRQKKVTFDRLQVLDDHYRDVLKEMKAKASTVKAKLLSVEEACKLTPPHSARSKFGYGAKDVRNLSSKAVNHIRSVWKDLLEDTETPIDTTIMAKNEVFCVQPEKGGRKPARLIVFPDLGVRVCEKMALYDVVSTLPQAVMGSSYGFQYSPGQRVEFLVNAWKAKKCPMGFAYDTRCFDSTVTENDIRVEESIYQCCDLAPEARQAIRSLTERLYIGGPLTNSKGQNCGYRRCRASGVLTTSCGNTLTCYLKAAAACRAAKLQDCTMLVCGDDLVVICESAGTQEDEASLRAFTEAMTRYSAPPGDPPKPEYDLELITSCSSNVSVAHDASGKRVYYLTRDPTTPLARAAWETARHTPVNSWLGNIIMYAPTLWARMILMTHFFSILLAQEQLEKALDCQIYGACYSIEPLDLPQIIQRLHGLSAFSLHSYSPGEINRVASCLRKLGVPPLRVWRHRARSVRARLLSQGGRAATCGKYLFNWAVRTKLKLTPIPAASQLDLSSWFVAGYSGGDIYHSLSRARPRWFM

In the case of `CNC(=O)c1c(-c2ccc(F)cc2)oc2ccc(-c3cc(C(=O)NC4(c5ncccn5)CC(F)C4)ccc3C)c(F)c12` (stereo not shown) [Example 16, 4-Fluoro-5-(5-(3-fluoro-1-(pyrimidin-2-yl)cyclobutylcarbamoyl)-2-methylphenyl)-2-(4-fluorophenyl)-N-methylbenzofuran-3-carboxamide], the concentration giving a half-maximal response (EC50) in experiment [1] (Hepatitis C virus, Huh-7, 72 h) was 6.62 nM. In experiment [2], the IC50 came out at 30 nM.
For `CNC(=O)c1c(-c2ccc(F)cc2)oc2ccc(-c3cc(C(=O)NC4(c5ncccn5)CC(OC)(OC)C4)ccc3C)c(F)c12` [Example 7, 5-(5-((3,3-Dimethoxy-1-(pyrimidin-2-yl)cyclobutyl)carbamoyl)-2-methylphenyl)-4-fluoro-2-(4-fluorophenyl)-N-methylbenzofuran-3-carboxamide], in that order: 60 nM and 10 nM.
For `CNC(=O)c1c(-c2ccc(F)cc2)oc2ccc(-c3cc(C(=O)NC4(c5ncccn5)CC(F)(F)C4)c(OC)cc3C)c(F)c12` [Example 18, 5-(5-(3,3-Difluoro-1-(pyrimidin-2-yl)cyclobutylcarbamoyl)-4-methoxy-2-methylphenyl)-4-fluoro-2-(4-fluorophenyl)-N-methylbenzofuran-3-carboxamide], in that order: 10 nM and 140 nM.
For `CNC(=O)c1c(-c2ccc(F)cc2)oc2ccc(-c3cc(C(=O)NC4(c5ncccn5)CC(F)(F)C4)cc(F)c3C)c(F)c12` [Example 17, 5-(5-((3,3-Difluoro-1-(pyrimidin-2-yl)cyclobutyl)carbamoyl)-3-fluoro-2-methylphenyl)-4-fluoro-2-(4-fluorophenyl)-N-methylbenzofuran-3-carboxamide], in that order: 10 nM and 250 nM.
Regarding `CNC(=O)c1c(-c2ccc(F)cc2)oc2cc(NCC(F)(F)F)c(-c3ccc(OC)c(C(=O)NC4(c5ncccn5)CC(OC(F)F)C4)c3)cc12` (single isomer, unassigned) [Example 64a], the concentration for a half-maximal effect (EC50) in experiment [1] (Hepatitis C virus, Huh-7, 72 h) turned out to be 4.23 nM. In experiment [2], this compound registered an IC50 of 3.3 nM.
In turn, `CNC(=O)c1c(-c2ccc(F)cc2)oc2ccc(-c3cc(C(=O)NC4(c5ncccn5)CC(OC)(OC)C4)c(OC)cc3C)c(F)c12` [Example 14, 5-(5-((3,3-Dimethoxy-1-(pyrimidin-2-yl)cyclobutyl)carbamoyl)-4-methoxy-2-methylphenyl)-4-fluoro-2-(4-fluorophenyl)-N-methylbenzofuran-3-carboxamide] registered a 50% effective concentration (EC50) in experiment [1] (Hepatitis C virus, Huh-7, 72 h) of 20 nM. Besides, the half-maximal inhibitory concentration (IC50) in experiment [2] stood at 30 nM.
For the compound `CNC(=O)c1c(-c2ccc(F)cc2)oc2ccc(-c3cc(C(=O)NC4(c5ncccn5)CC(O)C4)ccc3C)c(F)c12` (single isomer, unassigned) [Example 5b, 4-Fluoro-2-(4-fluorophenyl)-5-(5-((3-hydroxy-1-(pyrimidin-2-yl)cyclobutyl)carbamoyl)-2-methylphenyl)-N-methylbenzofuran-3-carboxamide], the midpoint of the response in experiment [1], the EC50, lay at 1190 nM. The compound also gave a half-inhibitory concentration (IC50) in experiment [2] of 230 nM.
With `CNC(=O)c1c(-c2ccc(F)cc2)oc2ccc(-c3cc(C(=O)NC4(c5ncccn5)CC(F)C4)cc(F)c3C)c(F)c12` (stereo not shown) [Example 20, 4-Fluoro-5-(3-fluoro-5-(3-fluoro-1-(pyrimidin-2-yl)cyclobutylcarbamoyl)-2-methylphenyl)-2-(4-fluorophenyl)-N-methylbenzofuran-3-carboxamide], the midpoint of the response in experiment [1] (Hepatitis C virus, Huh-7, 72 h), the EC50, lay at 6.16 nM. In experiment [2], this compound displayed an IC50 of 90 nM.
For `CNC(=O)c1c(-c2ccc(F)cc2)oc2ccc(-c3cc(C(=O)NC4(c5ncccn5)CC(F)C4)c(OC)cc3C)c(F)c12` (stereo not shown) [Example 19, 4-Fluoro-5-(5-(3-fluoro-1-(pyrimidin-2-yl)cyclobutylcarbamoyl)-4-methoxy-2-methylphenyl)-2-(4-fluorophenyl)-N-methylbenzofuran-3-carboxamide], in that order: 5.26 nM and 120 nM.
`CNC(=O)c1c(-c2ccc(F)cc2)oc2ccc(-c3cc(C(=O)NC4(c5ncccn5)CC(O)C4)cc(F)c3C)c(F)c12` (single isomer, unassigned) [Example 9b, 4-Fluoro-5-(3-fluoro-5-((3-hydroxy-1-(pyrimidin-2-yl)cyclobutyl)carbamoyl)-2-methylphenyl)-2-(4-fluorophenyl)-N-methylbenzofuran-3-carboxamide] gave an EC50 in experiment [1] of 300 nM. Further, the IC50 in experiment [2] is 310 nM.
In experiment [1] (Hepatitis C virus, Huh-7, 72 h), `CCCc1cc2oc(-c3ccc(F)cc3)c(C(=O)NC)c2cc1-c1cc(C(=O)NC2(C)CC(OC(F)F)C2)c(OC)cc1C` (single isomer, unassigned) [Example 57a, 5-(5-((3-(Difluoromethoxy)-1-methylcyclobutyl)carbamoyl)-4-methoxy-2-methylphenyl)-2-(4-fluorophenyl)-N-methyl-6-propylbenzofuran-3-carboxamide] had a half-maximal effective concentration (EC50) of 50 nM. This compound also came in with an IC50 in experiment [2] of 10 nM.
For the compound `CNC(=O)c1c(-c2ccc(F)cc2)oc2ccc(-c3cc(C(=O)NC4(c5ncccn5)CC(OC)C4)ccc3C)c(F)c12` (single isomer, unassigned) [Example 10b, 4-Fluoro-2-(4-fluorophenyl)-5-(5-((3-methoxy-1-(pyrimidin-2-yl)cyclobutyl)carbamoyl)-2-methylphenyl)-N-methylbenzofuran-3-carboxamide], the midpoint of the response in experiment [1], the EC50, lay at 4.43 nM. In experiment [2], this compound registered an IC50 of 10 nM.
Take `CCN(c1cc2oc(-c3ccc(F)cc3)c(C(=O)NC)c2cc1-c1cccc(C(=O)NC2(c3ncccn3)CC(F)C2)c1)S(C)(=O)=O` (stereo not shown) [Example 25, 6-(N-ethylmethylsulfonamido)-5-(3-((3-fluoro-1-(pyrimidin-2-yl)cyclobutyl)carbamoyl)phenyl)-2-(4-fluorophenyl)-N-methylbenzofuran-3-carboxamide]: in experiment [1] (Hepatitis C virus, Huh-7, 72 h), the midpoint of the response, the EC50, lay at 5.29 nM. Besides, in experiment [2], the 50% inhibitory concentration (IC50) turned out to be 1.37 nM.
Compound `CNC(=O)c1c(-c2ccc(F)cc2)oc2cc(CCC(F)(F)F)c(-c3cccc(C(=O)NC4(c5ncccn5)CC(OC(F)(F)F)C4)c3)cc12` (single isomer, unassigned) [Example 45a, 2-(4-Fluorophenyl)-N-methyl-5-(3-((1-(pyrimidin-2-yl)-3-(trifluoromethoxy)cyclobutyl)carbamoyl)phenyl)-6-(3,3,3-trifluoropropyl)benzofuran-3-carboxamide] gave a 50% effective concentration (EC50) in experiment [1] of 20 nM. For the same compound, 20 nM corresponded to half-maximal inhibition in experiment [2] (IC50).

Usually EC50 stands for the concentration giving half of the maximal effect. A high value points to a less potent agent. In general, IC50 refers to the concentration at which inhibition is half-maximal.

Source of the values: patent publication US11161837B2, “Benzofuran derivatives for the treatment of hepatitis C” (BRISTOL-MYERS SQUIBB COMPANY, priority 2016, dated 2021).
